Test results published in patent publication US20130089591A1, “Compositions” (Givaudan SA, priority 2010, published 2013).

How the values were obtained:
[1] = Water solubility of the aldehyde
[2] = Aggregation of polyurea capsules, Method 5.6; assay type: physicochemical; set-up: key: ∘: no aggregation of the capsules; +: aggregation of few capsules together only visible under microscopy; ++: aggregates of mm size; +++: important aggregation; ++++: aggregation is such that a cake is obtained; settings: polyurea Method 5.6, phase A of Table 1; for Encapsulation, No precursor (scale of aggregation): free aldehyde as phase B; for Encapsulation, With precursor (scale of aggregation): precursor (Method 1.1) as phase B
Description: An oil phase was prepared when Desmodur VL R20 (Bayer) was added in perfume oil at a level of 2.5%.
An aqueous phase (Solution S1) was prepared when Mowiol 4-88 (Kururay) was added in water, at a level of 0.1%.
An aqueous phase (Solution S2) was prepared when diethylentriamine (Merck) was added in water, at a level of 2%.
100 g of oil phase was mixed with 250 g of solution S1, to form an oil-in-water emulsion, in a 500 mL vessel equipped with a propeller operating at 1000 rpm.
After 10 min of stirring, 50 g of solution S2 was added.
The slurry was stirred for 4 h at room temperature.
The Method 5.6 of Example 5 was applied to encapsulate different perfume oils described as phase A (non aldehyde raw materials) and phase B (aldehyde raw materials).
The composition of Phase A is described in Table 1. Phase B is an aldehyde perfume molecule used as such or as its precursor form prepared according to Method 1.1.
According to the aspect of the slurry a scale of aggregation has been defined as follow: […]
(§1) ∘ no aggregation of the capsules + aggregation of few capsules together only visible under microscopy ++ aggregates of mm size +++ important aggregation ++++ aggregation is such that a cake is obtained

[3] = Aggregation of polyurea capsules, Method 5.1; assay type: physicochemical; settings: for Encapsulation (aggregation): free aldehyde at 5% in IPM
Description: An oil phase was prepared by adding Desmodur W (Isocyanate from Bayer) to a perfume oil at a level of 16.6%.
An aqueous phase (solution S1) was prepared by adding Luviskol k90 (BASF) to water, at a level of 4.5%. The pH of the solution was adjusted to 11.5 by addition of NaOH at 10%.
An aqueous phase (Solution S2) was prepared when Lupasol PR8515 (BASF) was added to water, at a level of 10%.
300 g of the oil phase was mixed with 500 g of solution S1, to form an oil-in-water emulsion, in a 1 L reactor equipped with a MIG stirrer operating at 1000 rpm.
After 30 minutes of mixing, 200 g of solution S2 was added over a period of 1 minute.
After 30 minutes, the slurry was heated up to 70° C. (1 H), then kept for 2 H at 70° C., then heated to 80° C. and kept for 1 H at 80° C., then heated to 85° C. and kept for 1 H at 85° C., then cooled to 70° C. and kept for 1 H at 70° C. before final cooling at 25° C.
The Method 5.1 of Example 5 was applied to encapsulate different perfume oils described as phase A (non aldehyde raw materials) and phase B (aldehyde raw materials).
In the following trials, phase A was IPM and phase B was aldehyde perfume molecules. Phase B was added at a level of 5% in phase A.
Phase B contains aldehyde C11 iso or the corresponding precursor prepared according to Method 1.1.
Phase B was added at a level of 5% in phase A.

[4] = Aggregation of polyurea capsules, Method 5.5; assay type: physicochemical; set-up: key: ∘: no aggregation of the capsules; +: aggregation of few capsules together only visible under microscopy; ++: aggregates of mm size; +++: important aggregation; ++++: aggregation is such that a cake is obtained; settings: polyurea Method 5.5, phase A of Table 1; for Encapsulation, No precursor (scale of aggregation): free aldehyde as phase B; for Encapsulation, With precursor (scale of aggregation): precursor (Method 1.1) as phase B
Description: An oil phase was prepared when Desmodur W and Desmodur N3300 (Bayer) were added in perfume oil at a level of 2.2% and 13% respectively.
An aqueous phase (Solution S1) was prepared when Gantrez AN119 (ISP) was added to water, at a level of 1.6%. The solution was heated at 70° C. for 10 min to disperse the polymer.
An aqueous phase (Solution S2) was prepared when Ethylene diamine (Merck) was added to water, at a level of 7.5%.
30 g of the oil phase was mixed with 80 g of solution S1, to form an oil-in-water emulsion, in a 250 mL vessel equipped with a propeller operating at 1000 rpm.
After 10 min of stirring, 20 g of solution S2 was added.
The slurry was stirred for 30 min at room temperature, then heated to 60° C. and stirred for 3 H at 60° C. before cooling.
The Method 5.5 of Example 5 was applied to encapsulate different perfume oils described as phase A (non aldehyde raw materials) and phase B (aldehyde raw materials).
The composition of Phase A was described in Table 1 above. Phase B is an aldehyde perfume molecule used as such or as its precursor form prepared according to Method 1.1.
According to the aspect of the slurry a scale of aggregation was defined as follow: […]
as §1
Phase B was added at a level of 20% of aldehyde in phase A.

[5] = Aggregation of polyamide capsules (Example 2 method); assay type: physicochemical; set-up: key to Encapsulation, No precursor (scale of aggregation) / Encapsulation, With precursor (scale of aggregation): ∘: no aggregation of the capsules; +: aggregation of few capsules together only visible under microscopy; ++: aggregates of mm size; +++: important aggregation; ++++: aggregation is such that a cake is obtained; settings: for Encapsulation, No precursor (scale of aggregation): free aldehyde as phase B at 5% in phase A of Table 1; for Encapsulation, With precursor (scale of aggregation): precursor of the aldehyde (Method 1.1) as phase B at 5% in phase A of Table 1
Description: An oil phase was prepared by dissolving isophtahaloyl dichloride (Fluka) in oil (oil composition specified in the examples below) at a level of 10%
An aqueous solution (Solution S1) was prepared by dissolving a polyvinyl alcohol Mowiol 4-88 (Kuru ray) in water at a level of 1%.
An aqueous solution (Solution S2) was prepared when triethylentetraamine (Hunstman) was diluted in water at a level of 3%.
100 g of the oil phase was mixed with 450 g of solution S1 to form an oil-in-water emulsion in a 1 L reactor equipped with a MIG stirrer operating at 1000 rpm. After 5 minutes of mixing, 450 g of solution S2 was slowly added. The resultant slurry of polyamide capsules was kept under stirring for 2 H.
Two capsule populations were formed. A first encapsulating IPM (isopropyl myristate) and a second containing IPM+5% of ethyl vaniline. The capsules were made according to the method of Example 2.
The methodology of Example 2 was applied to encapsulate different perfume oils described as phase A (non aldehyde raw materials) and phase B (aldehyde raw materials).
The phase B was added at 5% to the phase A prior to encapsulation. Different compositions of phase B have been used corresponding each time to a single aldehyde perfume molecule or to its precursor formed according to the methodology of Method 1.1, above.
According to the condition of the slurry a scale of aggregation has been defined as follows: […]
as §1

| Molecule | Water solubility ([1]; Table of Example 13) | Encapsulation, No precursor (scale of aggregation) [2] | Encapsulation, With precursor (scale of aggregation) [2] | further results |
| --- | --- | --- | --- | --- |
| CC(CC=O)CC(C)(C)C (stereo not drawn) [Ald C9 isononylic] | 160 ppm | +++ | ∘ |  |
| CC(C)(O)CCCC1=CCC(C=O)CC1 (stereo not drawn) [Cyclohexal] |  | ∘ | ∘ |  |
| CC(C)c1ccc(C=O)cc1 [Cuminic ald] | 280 ppm | ++ | ∘ |  |
| CC(CC=O)CCCC(C)(C)O (stereo not drawn) [Hydroxycitronellal] | 1800 ppm | +++ | ∘ | Water solubility ([1]; Table 3): 1800 ppm; Water solubility ([1]; Table of Example 11): 1800 ppm; Encapsulation (aggregation) [3]: Aggregation; Encapsulation, No precursor (scale of aggregation) [4]: ++++; Encapsulation, With precursor (scale of aggregation) [4]: ∘ |
| Aldehyde iso C11 |  |  |  | Water solubility ([1]; Table 2): 30 ppm; Slurry aspect ([3]; phase B at 5% in phase A of Table 4, listed as Aldehyde C11 iso): Cake; Slurry aspect ([3]; phase B at 5% in phase A of Table 4, listed as aldehyde C11 iso): aggregate; Encapsulation, No precursor (scale of aggregation) [5]: +++; Encapsulation, With precursor (scale of aggregation) [5]: + |
| COc1ccc(C=O)cc1 [Aubepine para cresol] |  |  |  | Water solubility ([1]; Table 2): 6 ppm; Encapsulation, No precursor (scale of aggregation) [5]: ++; Encapsulation, With precursor (scale of aggregation) [5]: ∘ |
| C/C(C=O)=C\c1ccccc1 [Methyl cinnamic ald] | 580 ppm | ∘ | ∘ |  |
| CC(CC=O)CCc1ccccc1 (stereo not drawn) [Mefranal] | 100 ppm | ∘ | ∘ |  |
| COC1CC2CC1C1CC(C=O)CC21 (stereo not drawn) [Scentenal] |  | ++ | ∘ |  |
| CCCCCCCCCC(C)C=O (stereo not drawn) [Aldehyde C12 mna] |  | ∘ | ∘ | Encapsulation, No precursor (scale of aggregation) [5]: ++; Encapsulation, With precursor (scale of aggregation) [5]: ∘; Encapsulation, No precursor (scale of aggregation) [4]: ∘; Encapsulation, With precursor (scale of aggregation) [4]: ∘ |
| CC1(C)C2CC=C(CCC=O)C1C2 (stereo not drawn) [Pino acetaldehyde] | 86 ppm | ++++ | ∘ |  |
| O=C/C=C/c1ccccc1 [Cinnamic ald] | 1900 ppm | + | ∘ |  |
| CCCCCCCCCC=O [Aldehyde C10] | 61 ppm | ++++ | ∘ | Water solubility ([1]; Table 2): 61 ppm; Water solubility ([1]; Table 3): 61 ppm; Water solubility ([1]; Table of Example 11): 61 ppm; Encapsulation (aggregation) [3]: Aggregation; Encapsulation, No precursor (scale of aggregation) [5]: +++; Encapsulation, With precursor (scale of aggregation) [5]: +; Encapsulation, No precursor (scale of aggregation) [4]: +++; Encapsulation, With precursor (scale of aggregation) [4]: ∘ |
| CCCCCC/C(C=O)=C\c1ccccc1 [Hexyl cinnamic ald] | 2 ppm | + | ∘ |  |
| CCCCCCCCCCCC=O [Aldehyde C12 laurique] |  | ++++ | ∘ | Encapsulation (aggregation) [3]: Aggregation; Encapsulation, No precursor (scale of aggregation) [5]: +++; Encapsulation, With precursor (scale of aggregation) [5]: ∘; Encapsulation, No precursor (scale of aggregation) [4]: ++; Encapsulation, With precursor (scale of aggregation) [4]: ∘ |
| CC1(C)CCCC2=C1CC(C=O)CC2 (stereo not drawn) [Cyclomyral] |  | ∘ | ∘ |  |
| CCCCCC=O [Capronaldehyde (hexanal)] |  | ++++ | ∘ |  |
| CC(C)c1cccc(C(C)CC=O)c1 (stereo not drawn) [Florhydral] |  |  |  | Water solubility ([1]; Table 3): 51 ppm; Encapsulation (aggregation) [3]: Aggregation |
| CC(C=O)c1ccccc1 (stereo not drawn) [Hydratropic ald] | 650 ppm | + | + |  |
| CC(C)=CCCC(C)C=O (stereo not drawn) [Melonal, 2,6-dimethyl-5-heptenal] | 344 ppm | ++++ | ∘ |  |
| CCOc1cc(C=O)ccc1O [ethyl vaniline] |  |  |  | Aggregation, microscopic examination ([5]; IPM + 5% aldehyde): significant aggregation |
